From patent US20080318992A1, “METHOD OF USING A PKC INHIBITOR TO REVERSE PREFRONTAL CORTICAL DECLINES” (YALE UNIVERSITY, priority 2007, published 2008)
Like-named read-outs stand apart in the source and are kept apart here.

How the values were obtained:
aged rhesus monkeys = experiment: Spatial delayed response task (working memory) in aged rhesus monkeys; assay type: in vivo, rhesus monkeys (Macaca mulatta); settings: for delayed response performance: 1 h prior to testing
Source text: Performance on this task is reliant upon the integrity of the dorsolateral prefrontal cortex (Goldman-Rakic, 1987) and is consistently impaired in aged rhesus monkey (Bartus, et al., 1978; Rapp and Amaral, 1989).
The present study used 13 aged female rhesus monkeys (Macaca mulatta) ranging in age from 18 to 35 years at the time of testing. Actual birthdates were not available for several of the wild-caught animals and ages were estimated based on health records, teeth, and known history; several had been in the Yale University colony for more than 15 years. Monkeys were individually housed and maintained on a diet of Purina monkey chow (St. Louis, Mo.) supplemented with fruit.
Animals were tested at the same time of day immediately prior to feeding. Highly palatable food rewards (e.g., peanuts, raisins, or chocolate chips) were utilized during testing to minimize the need for dietary regulation. Animals were tested twice a week with 3-4 days separating each test session (e.g., Monday and Thursday). Cognitive testing of monkeys occurred in a Wisconsin General Testing Apparatus (WGTA) situated in a sound-attenuating room. Background masking noise (60 dB, wideband) was used to minimize auditory distractions.
The monkeys were trained on the spatial delayed response task as described previously (Arnsten, A. F., et al., J. Neurosci. (1988) δ: 4287-4298). For the delayed response task, the animal watched as the experimenter baited one of several food-wells with a food reward. The number of food-wells varied from two to four wells, depending on the monkey's performance level and experience with the task. Care was taken by the experimenter to ensure that the animal attended the baiting procedure. After baiting, food-wells were covered with identical plaques, and an opaque screen was lowered between the animal and the food-wells for a specified delay. At the end of the delay, the screen was raised and the animal was allowed to choose. Reward was quasi-randomly distributed between the wells. Five delay lengths (referred to as delays A through E) were quasi-randomly distributed over 30 trials. The shortest of these delays was ˜2 s (the “0” s, A delay). The remaining delays were titrated for individual monkeys such that each monkey maintained a baseline performance of 60-73% correct. For example, the delays for one animal might be A=0, B=5, C=10, D=15, and E=20 s.
Data were analyzed by comparing performance following treatment using a one-way repeated-measures ANOVA. […] Values were represented as means±SEM. Linear relationships between treatment response at the optimal dose of CHEL and age of the monkey (years) were analyzed in 10 monkeys with known birthdates using Pearson's test. In all cases, an α level of 0.05 was considered statistically significant.
All animals received all treatments conditions, with at least 7 days between treatments. The order of treatment administration was quasi-randomized.

[1] = systemic administration; cited from earlier work
[2] = test system: rat medial prefrontal cortex; settings: systemic administration and infusions directly to the rat medial prefrontal cortex via implanted cannula; cited from earlier work
aged rats = settings: for change in percent-correct from mean 2-day baseline: 45 min prior to testing, N=5 aged rats

Compound: COc1ccc2c(c[n+](C)c3c4cc5c(cc4ccc23)OCO5)c1OC [CHEL, Chelerythrine]
- performance of 3 oldest monkeys better than 3 youngest monkeys (aged rhesus monkeys; 0.3 μg/kg oral): > 20%
- delayed response performance (aged rhesus monkeys; 0.3 μg/kg oral, N=13 aged monkeys, p=0.013 vs vehicle): 74.5±2.6 % correct
- spatial working memory performance 4 hours after oral administration (aged rhesus monkeys; 0.3 ug/kg oral, 4 hrs after administration, p=0.012 compared to vehicle (FIG. 5)): improved performance
- performance of the 3 oldest monkeys (aged rhesus monkeys; 0.3 μg/kg oral, 3 oldest monkeys, mean age 32.3 years): 85.6±4.4 % correct
- performance of the 3 youngest aged monkeys (aged rhesus monkeys; 0.3 μg/kg oral, 3 youngest aged monkeys, mean age 20.7 years): 65.0±4.8 % correct
- delayed response performance (aged rhesus monkeys; 3.0 μg/kg oral, N=13, p=0.151 vs vehicle): 71.5±1.9 % correct
- delayed response performance (aged rhesus monkeys; 30.0 μg/kg oral, N=13, p=0.406 vs vehicle): 66.1±1.8%
- spatial working memory performance at best dose (aged rhesus monkeys; individual best dose for all monkeys, oral, 4 hours, p=0.001 (FIG. 5)): reliably improved performance
- serious deficits at high doses (aged rhesus monkeys; oral, even at high doses (150 ug/kg), 4 hours (FIG. 5)): no serious deficits were found
- working memory impairments following administration of cirazoline [1]: reverse working memory impairments
- stress induced working memory impairments [2]: capable of reversing stress induced working memory impairments
- change in percent-correct from mean 2-day baseline (aged rats; 0.3 mg/kg subcutaneous, p=0.691 vs vehicle): 8.6±5.4 % improvement
- change in percent-correct from mean 2-day baseline (aged rats; 1.0 mg/kg subcutaneous, p=0.047 vs vehicle): 26±6.4 % improvement
- performance times (non-specific motor effects) (aged rats; 0.3 or 1.0 mg/kg subcutaneous, data not shown): performance times did not differ as a result of treatment
